For series [1], the system named is Mycobacterium tuberculosis. As to the kind of experiment: Anti-mycobacterial activity against Mycobacterium tuberculosis H37Rv ATCC 27294 assessed as inhibition of microbial growth incubated for 5 days by MABA method. The format is functional. The following applies: H37Rv ATCC 27294, 120 h. On the technique in general: The colour change of resazurin is a common sign of viable cells or microbes.

The nature of series [2]: Selectivity index, ratio of IC50 for mouse RAW264.7 cells to MIC for Mycobacterium tuberculosis H37Rv ATCC 27294. The settings on record: read-out: Selectivity Index. It counts as toxicity.
A further series relates to RAW264.7. As to the kind of experiment: Cytotoxicity against mouse RAW264.7 cells assessed as reduction in cell viability after 72 hrs by MTT assay. It counts as cell-based. The following applies: RAW264.7, 72 h. For orientation: Formazan colour is commonly taken as a measure of viable cells.
Another series has as its system PBMC. As to the kind of experiment: Cytotoxicity against PBMC (unknown origin) assessed as reduction in cell viability after 72 hrs by MTT assay. It counts as cell-based. The following applies: Homo sapiens.
Series [3] can be described thus: Selectivity index, ratio of IC50 for PBMC (unknown origin) to MIC for Mycobacterium tuberculosis H37Rv ATCC 27294.

Converted amounts (≈) assume the structure as drawn.

The MIC is the lowest concentration found to suppress growth. Consider `Cc1cnc(N2CCOCC2)c(Cn2cc(/C=N/NC(=O)c3ccc(C(F)(F)F)cc3)nn2)c1`, for which, in series [1], the MIC was 26.4 µM.
For the compound `Cc1ccc(-c2cnc(N3CCSCC3)c(Cn3cc(C=O)nn3)c2)cc1`, the MIC in series [1] came to 33.1 µM.
The term IC50 denotes the concentration that gives 50% inhibition. With `Cc1ccc(-c2cnc(N3CCSCC3)c(Cn3cc(/C=N/NC(=O)c4ccc(C(F)(F)F)cc4)nn3)c2)cc1`, in series [2], the selectivity ratio is 104. Also, the values for the IC50 in the series on RAW264.7 and in the series on PBMC were 326 µg/mL (≈ 576 µM) and more than 400 µg/mL, respectively. Further, in series [1], the MIC was determined as 5.4 µM. In addition, the “Selectivity Index” value in series [3] was more than 128.
In the case of `Cc1cnc(N2CCSCC2)c(Cn2cc(C=O)nn2)c1`, the MIC in series [1] was 10.3 µM.
Still for that read-out and setting: the same measure for `O=Cc1cn(Cc2cc(-c3ccccc3)cnc2N2CCSCC2)nn1`: 8.6 µM.
Take `NNC(=O)c1ccncc1` [ISONIAZID]: the values for the IC50 with RAW264.7 and in the series with PBMC were more than 400 µg/mL and 169 µg/mL (≈ 1230 µM), respectively. The MIC in series [1] worked out at 2.6 µM.
For the compound `O=C(N/N=C/c1cn(Cc2cc(-c3ccccc3)cnc2Cl)nn1)c1ccc(F)cc1`, the selectivity ratio in series [2] came to 97. In addition, the IC50 with RAW264.7 is 152 µg/mL (≈ 350 µM); in the series with PBMC it was 357 µg/mL (≈ 821 µM). For the same compound, in series [1], the MIC was 3.6 µM. The “Selectivity Index” value in series [3] was 228.
In the case of `Cc1ccc(-c2cnc(N3CCOCC3)c(Cn3cc(C=O)nn3)c2)cc1`, the minimal inhibitory concentration (MIC) in series [1] came out at 4.3 µM.
As to `Cc1cnc(Cl)c(Cn2cc(/C=N/NC(=O)c3ccc(F)cc3)nn2)c1`, the MIC in series [1] was determined as 33.6 µM.
As to `Cc1cnc(Cl)c(Cn2cc(/C=N/NC(=O)c3ccc(C(F)(F)F)cc3)nn2)c1`, the selectivity ratio in series [2] amounted to 165. Moreover, the 50% inhibitory concentration (IC50) with RAW264.7 stood at 258 µg/mL (≈ 610 µM); with PBMC, 337 µg/mL (≈ 797 µM). In addition, in series [1], the MIC came to 3.7 µM. In addition, the “Selectivity Index” value in series [3] was determined as 216.
For the compound `O=Cc1cn(Cc2cc(-c3ccc(F)cc3)cnc2Cl)nn1`, in series [1], the MIC stood at 19.8 µM.
Consider `O=C(N/N=C/c1cn(Cc2cc(-c3ccccc3)cnc2N2CCSCC2)nn1)c1ccc(C(F)(F)F)cc1`, for which the selectivity ratio in series [2] was determined as 189. Moreover, the IC50 was found to be 296 µg/mL (≈ 537 µM) in the series on RAW264.7 and 188 µg/mL (≈ 341 µM) in the series on PBMC. The MIC in series [1] was found to be 2.8 µM. In series [3], the “Selectivity Index” value stood at 120.
With `Cc1cnc(N2CCSCC2)c(Cn2cc(/C=N/NC(=O)c3ccc(C(F)(F)F)cc3)nn2)c1`, the selectivity ratio in series [2] stood at 136. Besides, the IC50 stood at 212 µg/mL (≈ 433 µM) in the series with RAW264.7 and 350 µg/mL (≈ 715 µM) in the series with PBMC. Further, the MIC in series [1] amounted to 3.2 µM. Further, the “Selectivity Index” value in series [3] came out at 224.
`Cc1ccc(-c2cnc(Cl)c(Cn3cc(C=O)nn3)c2)cc1`: the MIC in series [1] amounted to 40.1 µM.
Regarding `Cc1cnc(N2CCSCC2)c(Cn2cc(/C=N/NC(=O)c3ccc(F)cc3)nn2)c1`, the MIC in series [1] came out at 28.5 µM.
As to `Cc1ccc(-c2cnc(N3CCOCC3)c(Cn3cc(/C=N/NC(=O)c4ccc(F)cc4)nn3)c2)cc1`, the MIC in series [1] turned out to be 100 µM.
The same measure, in the same setting: the same measure for `O=C(N/N=C/c1cn(Cc2cc(-c3ccccc3)cnc2N2CCOCC2)nn1)c1ccc(F)cc1`: 12.9 µM; for `Cc1ccc(-c2cnc(Cl)c(Cn3cc(/C=N/NC(=O)c4ccc(C(F)(F)F)cc4)nn3)c2)cc1`: 50.2 µM; for `Cc1ccc(-c2cnc(N3CCOCC3)c(Cn3cc(/C=N/NC(=O)c4ccc(C(F)(F)F)cc4)nn3)c2)cc1`: 91.1 µM.
Still for that read-out and setting: as for `Cc1cnc(Cl)c(Cn2cc(C=O)nn2)c1`, the figure is 13.3 µM; as for `Cc1ccc(-c2cnc(Cl)c(Cn3cc(/C=N/NC(=O)c4ccc(F)cc4)nn3)c2)cc1`, 27.9 µM.
With `O=C(N/N=C/c1cn(Cc2cc(-c3ccccc3)cnc2N2CCSCC2)nn1)c1ccc(F)cc1`, the selectivity ratio in series [2] was found to be 60. For the same compound, the IC50 in the series on RAW264.7 is 188 µg/mL (≈ 375 µM); in the series on PBMC, more than 400 µg/mL. Also, in series [1], the MIC came to 6.2 µM. For the same compound, the “Selectivity Index” value in series [3] is more than 128.
As for `CC[C@@H](CO)NCCN[C@@H](CC)CO` [ETHAMBUTOL], the MIC in series [1] amounted to 15.3 µM.
The same measure, in the same setting: the same measure for `O=C(O)c1cn(C2CC2)c2cc(N3CCNCC3)c(F)cc2c1=O` [CIPROFLOXACIN]: 12.6 µM; for `O=C(N/N=C/c1cn(Cc2cc(-c3ccccc3)cnc2N2CCOCC2)nn1)c1ccc(C(F)(F)F)cc1`: 23.3 µM.
`O=C(N/N=C/c1cn(Cc2cc(-c3ccccc3)cnc2Cl)nn1)c1ccc(C(F)(F)F)cc1`: the selectivity ratio in series [2] was found to be 200. Also, the IC50 in the series with RAW264.7 was determined as 313 µg/mL (≈ 646 µM); in the series with PBMC, 282 µg/mL (≈ 582 µM). Also, the MIC in series [1] amounted to 3.2 µM. The “Selectivity Index” value in series [3] was 180.
For `Cc1cnc(N2CCOCC2)c(Cn2cc(C=O)nn2)c1`, the MIC in series [1] came to 21.8 µM.
Still for that read-out and setting: the same measure for `O=Cc1cn(Cc2cc(-c3ccccc3)cnc2N2CCOCC2)nn1`: 4.5 µM; for `Cc1ccc(-c2cnc(N3CCSCC3)c(Cn3cc(/C=N/NC(=O)c4ccc(F)cc4)nn3)c2)cc1`: 97.1 µM; for `O=Cc1cn(Cc2cc(-c3ccccc3)cnc2Cl)nn1`: 5.2 µM.
Still for that read-out and setting: as for `Cc1cnc(N2CCOCC2)c(Cn2cc(/C=N/NC(=O)c3ccc(F)cc3)nn2)c1`, the figure is 59.1 µM.
Still for that read-out and setting: as for `O=C(N/N=C/c1cn(Cc2cc(-c3ccc(F)cc3)cnc2Cl)nn1)c1ccc(C(F)(F)F)cc1`, the figure is 12.5 µM; as for `O=C(N/N=C/c1cn(Cc2cc(-c3ccc(F)cc3)cnc2Cl)nn1)c1ccc(F)cc1`, 13.8 µM.

The values are drawn from ChEMBL document CHEMBL3421527, “Synthesis and anti-mycobacterial activity of 2-chloronicotinaldehydes based novel 1H-1,2,3-triazolylbenzohydrazides” (Bioorg Med Chem Lett, 2015).
